Consider 19 compounds from US20260297060A1, “COMPOUNDS FOR THE DEGRADATION OF MUTANT BRAF” (C4 THERAPEUTICS, INC., priority 2023, published 2026).

The subject of the assay is A375-NRAS^Q61K cells. Briefly: CTGlo Cell Viability Assay, A375-NRAS^Q61K (A375.11) cells, 96 hours. The settings on record: A375.11 (A375-NRAS^Q61K) cells; for Emax: lowest % viability achieved. The class given is cell-based, human. The essentials:
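Viability as CellTiter-Glo ATP luminescence after 96 h compound exposure at 37 °C; A375.11 (BRAF V600E/NRAS Q61K) cells at 250/well, top final concentration 10 μM in half-log steps. Signal was background-corrected and set relative to DMSO controls. A 4-parameter logistic fit gave GI50 (50% crossing) and Emax.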

Usually GI50 stands for the concentration giving 50% growth inhibition. Under “Homo sapiens, 96 h”, `CCN(C)S(=O)(=O)Nc1ccc(F)c(Oc2ccc3ncn([C@@H]4CCC5(CCN(C6CCC(c7cc8c(cc7F)c(N7CCC(=O)NC7=O)nn8C)CC6)CC5)C4)c(=O)c3c2)c1C#N` (single isomer, unassigned) [Compound 31] showed a GI50 of 1000 to 10000 nM and an Emax of less than 50%.
In the same order, the values of `CCN(C)S(=O)(=O)Nc1ccc(F)c(Oc2ccc3ncn([C@H]4COC5(CCC(N6CCN(c7ccc(NC8CCC(=O)NC8=O)cc7F)CC6)CC5)C4)c(=O)c3c2)c1C#N` (stereo partly drawn) [Compound 40, 6-[2-cyano-3-[[ethyl(methyl)sulfamoyl]amino]-6-fluoro-phenoxy]-3-[(3R)-8-[4-[4-[(2,6-dioxo-3-piperidyl)amino]-2-fluoro-phenyl]piperazin-1-yl]-1-oxaspiro[4.5]decan-3-yl]-4-oxo-quinazoline] are 1000 to 10000 nM and 50 to 90%.
In the same order, the values of `CCN(C)S(=O)(=O)Nc1ccc(F)c(Oc2ccc3ncn(C4CC5(CCN(C6CCC(c7cc8c(cc7F)c(N7CCC(=O)NC7=O)nn8C)CC6F)CC5)C4)c(=O)c3c2)c1C#N` (single isomer, unassigned) [Compound 83, 6-[2-cyano-3-[[ethyl(methyl)sulfamoyl]amino]-6-fluoro-phenoxy]-3-[7-[4-[3-(2,4-dioxohexahydropyrimidin-1-yl)-5-fluoro-1-methyl-indazol-6-yl]-2-fluoro-cyclohexyl]-7-azaspiro[3.5]nonan-2-yl]-4-oxo-quinazoline] are less than 1000 nM and less than 50%.
On the same counts, the results for `CCN(C)S(=O)(=O)Nc1ccc(F)c(Oc2ccc3ncc(OC4CCN(C5CCC(c6ccc(NC7CCC(=O)NC7=O)cc6F)CC5)CC4)nc3c2)c1C#N` (single isomer, unassigned) [Compound 110, 7-[2-cyano-3-[[ethyl(methyl)sulfamoyl]amino]-6-fluoro-phenoxy]-2-[[1-[4-[4-[(2,6-dioxo-3-piperidyl)amino]-2-fluoro-phenyl]cyclohexyl]-4-piperidyl]oxy]quinoxaline] are more than 10000 nM and 50 to 90%.
On to `CCN(C)S(=O)(=O)Nc1ccc(F)c(Oc2ccc3ncn([C@H]4CCC5(CCN(C6CCC(c7ccc(NC8CCC(=O)NC8=O)cc7F)CC6)CC5)C4)c(=O)c3c2)c1C#N` (single isomer, unassigned) [Compound 24], for which, for the setting “Homo sapiens, 96 h”, the GI50 is less than 1000 nM and the Emax was less than 50%.
In the same order, the values of `CCN(C)S(=O)(=O)Nc1ccc(F)c(Oc2ccc3ncn(C4CC5(CCN(C6CCC(c7cc8c(cc7F)c(N7CCC(=O)NC7=O)nn8C)CC6)CC5)C4)c(=O)c3c2)c1C#N` (single isomer, unassigned) [Compound 8, 6-[2-cyano-3-[[ethyl(methyl)sulfamoyl]amino]-6-fluoro-phenoxy]-3-[7-[4-[3-(2,4-dioxohexahydropyrimidin-1-yl)-5-fluoro-1-methyl-indazol-6-yl]cyclohexyl]-7-azaspiro[3.5]nonan-2-yl]-4-oxo-quinazoline] are less than 1000 nM and less than 50%.
Under “Homo sapiens, 96 h”, `Cn1nc(N2CCC(=O)NC2=O)c2cc(F)c(N3CC4(CC(N5CCC6(CC5)C[C@@H](n5cnc7ccc(Oc8c(F)ccc(NS(=O)(=O)N9CC%10(CCC%10)C9)c8C#N)cc7c5=O)CO6)C4)C3)cc21` [Compound 254, N-[2-cyano-3-[3-[(3R)-8-[2-[3-(2,4-dioxohexahydropyrimidin-1-yl)-5-fluoro-1-methyl-indazol-6-yl]-2-azaspiro[3.3]heptan-6-yl]-1-oxa-8-azaspiro[4.5]decan-3-yl]-4-oxo-quinazolin-6-yl]oxy-4-fluoro-phenyl]-2-azaspiro[3.3]heptane-2-sulfonamide] returned a 50% growth inhibitory concentration (GI50) of less than 1000 nM and an Emax of less than 50%.
As to `CCN(C)S(=O)(=O)Nc1ccc(F)c(Oc2ccc3ncn([C@H]4COC5(CCC(N6CC7(CN(c8ccc(NC9CCC(=O)NC9=O)cc8F)C7)C6)CC5)C4)c(=O)c3c2)c1C#N` (stereo partly drawn) [Compound 30, 6-[2-cyano-3-[[ethyl(methyl)sulfamoyl]amino]-6-fluoro-phenoxy]-3-[(3R)-8-[6-[4-[(2,6-dioxo-3-piperidyl)amino]-2-fluoro-phenyl]-2,6-diazaspiro[3.3]heptan-2-yl]-1-oxaspiro[4.5]decan-3-yl]-4-oxo-quinazoline], for the setting “Homo sapiens, 96 h”, the concentration for 50% growth inhibition (GI50) is 1000 to 10000 nM and the Emax is less than 50%.
In the same order, the values of `CCN(C)S(=O)(=O)Nc1ccc(F)c(Oc2ccc3ncn([C@H]4COC5(CCN(C6CCC(c7cc8c(cc7F)c(N7CCC(=O)NC7=O)nn8C)CC6)CC5)C4)c(=O)c3c2)c1F` (single isomer, unassigned) [Compound 71] are less than 1000 nM and less than 50%.
Under “Homo sapiens, 96 h”, `CN(CCO)S(=O)(=O)Nc1ccc(F)c(Oc2ccc3ncn(C4CC5(CCN(C6CCC(c7cc8c(cc7F)c(N7CCC(=O)NC7=O)nn8C)CC6)CC5)C4)c(=O)c3c2)c1C#N` (single isomer, unassigned) [Compound 81, 6-[2-cyano-6-fluoro-3-[[2-hydroxyethyl(methyl)sulfamoyl]amino]phenoxy]-3-[7-[4-[3-(2,4-dioxohexahydropyrimidin-1-yl)-5-fluoro-1-methyl-indazol-6-yl]cyclohexyl]-7-azaspiro[3.5]nonan-2-yl]-4-oxo-quinazoline] had a GI50 of 1000 to 10000 nM and an Emax of 50 to 90%.
For the setting “Homo sapiens, 96 h”, `Cn1nc(N2CCC(=O)NC2=O)c2cc(F)c(N3CC4(CC(N5CCC6(CC5)CC(n5cnc7ccc(Oc8c(F)ccc(NS(=O)(=O)C9CCC9)c8C#N)cc7c5=O)C6)C4)C3)cc21` [Compound 259, N-[2-cyano-3-[3-[7-[2-[3-(2,4-dioxohexahydropyrimidin-1-yl)-5-fluoro-1-methyl-indazol-6-yl]-2-azaspiro[3.3]heptan-6-yl]-7-azaspiro[3.5]nonan-2-yl]-4-oxo-quinazolin-6-yl]oxy-4-fluoro-phenyl]cyclobutanesulfonamide] returned a concentration for 50% growth inhibition (GI50) of less than 1000 nM and an Emax of less than 50%.
Consider `CN(CCO)S(=O)(=O)Nc1ccc(F)c(Oc2ccc3ncn(C4CC5(CCN(C6CC7(C6)CN(c6cc8c(cc6F)c(N6CCC(=O)NC6=O)nn8C)C7)CC5)C4)c(=O)c3c2)c1C#N` (centres unmarked) [Compound 151, 6-[2-cyano-6-fluoro-3-[[2-hydroxyethyl(methyl)sulfamoyl]amino]phenoxy]-3-[7-[2-[3-(2,4-dioxohexahydropyrimidin-1-yl)-5-fluoro-1-methyl-indazol-6-yl]-2-azaspiro[3.3]heptan-6-yl]-7-azaspiro[3.5]nonan-2-yl]-4-oxo-quinazoline], for which, where the note is “Homo sapiens, 96 h”, the GI50 is 1000 to 10000 nM and the Emax is more than 90%.
On the same counts, the results for `CCN(C)S(=O)(=O)Nc1ccc(F)c(Oc2ccc3ncc(OCC4CCN(C5CCC(c6cc7c(cc6F)c(N6CCC(=O)NC6=O)nn7C)CC5)CC4)nc3c2)c1C#N` (single isomer, unassigned) [Compound 118, 7-[2-cyano-3-[[ethyl(methyl)sulfamoyl]amino]-6-fluoro-phenoxy]-2-[[1-[4-[3-(2,4-dioxohexahydropyrimidin-1-yl)-5-fluoro-1-methyl-indazol-6-yl]cyclohexyl]-4-piperidyl]methoxy]quinoxaline] are 1000 to 10000 nM and 50 to 90%.
The compound `CCN(C)S(=O)(=O)Nc1ccc(F)c(Oc2ccc3ncc(OC4CC5(CCN(C6CCC(c7cc8c(cc7F)c(N7CCC(=O)NC7=O)nn8C)CC6)CC5)C4)nc3c2)c1C#N` (single isomer, unassigned) [Compound 218, 7-[2-cyano-3-[[ethyl(methyl)sulfamoyl]amino]-6-fluoro-phenoxy]-2-[[7-[4-[3-(2,4-dioxohexahydropyrimidin-1-yl)-5-fluoro-1-methyl-indazol-6-yl]cyclohexyl]-7-azaspiro[3.5]nonan-2-yl]oxy]quinoxaline] had a GI50 of less than 1000 nM. Besides, the Emax (Homo sapiens, 96 h) was 50 to 90%.
For the setting “Homo sapiens, 96 h”, `CO[C@@H]1CCN(S(=O)(=O)Nc2ccc(F)c(Oc3ccc4ncn([C@H]5COC6(CCN(C7CC8(C7)CN(c7cc9c(cc7F)c(N7CCC(=O)NC7=O)nn9C)C8)CC6)C5)c(=O)c4c3)c2C#N)C1` [Compound 144, (3R)-N-[2-cyano-3-[3-[(3R)-8-[2-[3-(2,4-dioxohexahydropyrimidin-1-yl)-5-fluoro-1-methyl-indazol-6-yl]-2-azaspiro[3.3]heptan-6-yl]-1-oxa-8-azaspiro[4.5]decan-3-yl]-4-oxo-quinazolin-6-yl]oxy-4-fluoro-phenyl]-3-methoxy-pyrrolidine-1-sulfonamide] showed a GI50 of less than 1000 nM and an Emax of less than 50%.
On the same counts, the results for `CCN(C)S(=O)(=O)Nc1ccc(F)c(Oc2ccc3ncn([C@H]4COC5(CCN(C6CCC(c7cc8c(cc7F)c(N7CCC(=O)NC7=O)nn8C)CC6)CC5)C4)c(=O)c3c2F)c1C#N` (single isomer, unassigned) [Compound 41] are less than 1000 nM and less than 50%.
In the same order, the values of `Cn1nc(N2CCC(=O)NC2=O)c2cc(F)c(C3CCC(N4CCC5(CC4)C[C@@H](n4cnc6ccc(Oc7c(F)ccc(NS(=O)(=O)C8CCCC8)c7C#N)cc6c4=O)CO5)CC3)cc21` (single isomer, unassigned) [Compound 113] are less than 1000 nM and less than 50%.
`CCN(C)S(=O)(=O)Nc1ccc(F)c(Oc2ccc3ncc([C@@H]4COC5(CCN(C6CCC(c7ccc(NC8CCC(=O)NC8=O)cc7F)CC6)CC5)C4)nc3c2)c1C#N` (single isomer, unassigned) [Compound 60]: the GI50 is less than 1000 nM. The same compound registered an Emax (Homo sapiens, 96 h) of less than 50%.
With `CCN(C)S(=O)(=O)Nc1ccc(F)c(Oc2ccc3ncn([C@@H]4COC5(CCN(C6CCC(c7cc8c(cc7F)c(N7CCC(=O)NC7=O)nn8C)CC6)CC5)C4)c(=O)c3c2F)c1C#N` (single isomer, unassigned) [Compound 46], under “Homo sapiens, 96 h”, the concentration for 50% growth inhibition (GI50) is less than 1000 nM and the Emax was less than 50%.
